Experimental data as given in the supplement of paper PMC10307832.

How the values were obtained:
Assay in all cases: relative viability (nuclei count vs DMSO), 5 days (fraction); higher = more cells survive
IMD-0354 + Trametinib = compound: O=C(Nc1cc(C(F)(F)F)cc(C(F)(F)F)c1)c1cc(Cl)ccc1O [IMD-0354] + CC(=O)Nc1cccc(-n2c(=O)n(C3CC3)c(=O)c3c(Nc4ccc(I)cc4F)n(C)c(=O)c(C)c32)c1 [Trametinib] (partner 0.02 µM)
Procedure, shortened: (§1)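 Medians of duplicate plates are given as relative viability. That measure is the nuclei count in treated wells divided by the count in vehicle wells. Counts were taken on 4× images of lung cancer cell lines in 1536-well plates, 5 days after pin-tool dosing the day after seeding with one drug alone or a fixed anchor-drug dose plus five library-drug doses (not always all listed) in √10 steps.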

IMD-0354 + Navitoclax = compound: O=C(Nc1cc(C(F)(F)F)cc(C(F)(F)F)c1)c1cc(Cl)ccc1O [IMD-0354] + CC1(C)CCC(c2ccc(Cl)cc2)=C(CN2CCN(c3ccc(C(=O)NS(=O)(=O)c4ccc(N[C@H](CCN5CCOCC5)CSc5ccccc5)c(S(=O)(=O)C(F)(F)F)c4)cc3)CC2)C1 [Navitoclax] (partner 0.5 µM)
Procedure, shortened: as §1

CX-5461 + Foretinib = compound: Cc1cnc(CNC(=O)c2c(=O)c3ccc(N4CCCN(C)CC4)nc3n3c2sc2ccccc23)cn1 [CX-5461] + COc1cc2c(Oc3ccc(NC(=O)C4(C(=O)Nc5ccc(F)cc5)CC4)cc3F)ccnc2cc1OCCCN1CCOCC1 [Foretinib] (partner 0.25 µM)
Procedure, shortened: as §1

CX-5461 + Vorinostat = compound: Cc1cnc(CNC(=O)c2c(=O)c3ccc(N4CCCN(C)CC4)nc3n3c2sc2ccccc23)cn1 [CX-5461] + O=C(CCCCCCC(=O)Nc1ccccc1)NO [Vorinostat] (partner 1 µM)
Procedure, shortened: as §1

| Cell Line | relative viability (IMD-0354 + Trametinib; first compound 0.04 µM) | relative viability (IMD-0354 + Trametinib; first compound 0.1265 µM) | relative viability (IMD-0354 + Trametinib; first compound 0.4 µM) | relative viability (IMD-0354 + Trametinib; first compound 1.265 µM) | relative viability (IMD-0354 + Trametinib; first compound 4 µM) | relative viability (IMD-0354 + Navitoclax; first compound 0.04 µM) | relative viability (IMD-0354 + Navitoclax; first compound 0.1265 µM) | relative viability (IMD-0354 + Navitoclax; first compound 0.4 µM) | relative viability (IMD-0354 + Navitoclax; first compound 1.265 µM) | relative viability (IMD-0354 + Navitoclax; first compound 4 µM) | relative viability (CX-5461 + Foretinib; first compound 0.01 µM) | relative viability (CX-5461 + Foretinib; first compound 0.03162 µM) | relative viability (CX-5461 + Foretinib; first compound 0.1 µM) | relative viability (CX-5461 + Foretinib; first compound 0.3162 µM) | relative viability (CX-5461 + Foretinib; first compound 1 µM) | relative viability (CX-5461 + Vorinostat; first compound 0.01 µM) | relative viability (CX-5461 + Vorinostat; first compound 0.03162 µM) | relative viability (CX-5461 + Vorinostat; first compound 0.1 µM) | relative viability (CX-5461 + Vorinostat; first compound 0.3162 µM) | relative viability (CX-5461 + Vorinostat; first compound 1 µM) |
| --- | --- | --- | --- | --- | --- | --- | --- | --- | --- | --- | --- | --- | --- | --- | --- | --- | --- | --- | --- | --- |
| HOP-62 | 0.405 | 0.394 | 0.403 | 0.42 | 0.17 | 1.02 | 0.976 | 0.504 | 0.78 | 0.295 | 1.09 | 1.14 | 1.08 | 1.01 | 1.04 | 0.542 | 0.856 | 0.655 | 0.271 | 0.405 |
| LC-2-ad | 0.968 | 0.877 | 0.54 | 0.348 | 0.189 | 0.408 | 0.395 | 0.199 | 0.0893 | 0.105 | 0.919 | 1.01 | 0.835 | 0.88 | 0.504 | 0.732 | 0.768 | 0.716 | 0.659 | 0.491 |
| LCLC-97TM1 | 0.186 | 0.178 | 0.141 | 0.214 | 0.113 | – | 0.331 | 0.368 | 0.322 | 0.205 | 0.953 | 1.02 | 1 | – | 0.975 | 0.917 | 0.965 | 0.769 | 0.102 | 0.661 |
| LK-2 | 0.831 | 0.669 | – | 0.874 | 0.255 | 1.15 | 0.812 | – | 0.777 | 0.247 | 1.17 | 0.942 | 1.26 | – | 1.24 | 0.422 | 0.315 | 0.367 | 0.2 | 0.307 |
| LOU-NH91 | 0.824 | 0.675 | 0.406 | 0.177 | 0.239 | 0.734 | 0.712 | 0.396 | 0.135 | 0.165 | 1.02 | 1.02 | 0.935 | – | 0.942 | 0.985 | 0.957 | 0.87 | 0.49 | 0.697 |
| LU99A | 0.434 | 0.475 | 0.442 | 0.505 | 0.206 | 0.644 | 0.808 | 0.654 | 0.479 | 0.148 | 0.818 | 0.797 | 0.764 | 0.495 | 0.798 | 0.529 | 0.544 | 0.377 | 0.323 | 0.215 |
| LXF-289 | 0.721 | 0.62 | 0.643 | 0.5 | 0.207 | 0.927 | 0.88 | 0.789 | 0.666 | 0.0776 | 0.998 | 1.02 | 0.974 | 0.402 | 0.902 | 0.803 | 0.744 | 0.635 | – | 0.544 |
| NCI-H23 | 0.456 | 0.344 | 0.28 | 0.144 | 0.162 | 0.893 | 0.814 | 0.54 | 0.394 | 0.207 | 0.874 | 1.15 | 0.98 | 0.938 | 1.08 | 0.755 | 0.577 | 0.492 | 0.458 | 0.3 |
| NCI-H322M | 0.567 | 0.622 | 0.483 | 0.388 | 0.426 | 1.27 | 1.23 | 1.12 | 1.5 | 0.267 | 0.834 | 0.995 | 0.937 | 0.394 | 0.7 | 0.894 | 0.802 | 0.9 | 0.569 | 0.743 |
| NCI-H441 | 0.528 | 0.543 | 0.359 | 0.164 | 0.191 | – | 0.473 | 0.38 | 0.164 | 0.217 | 0.88 | 1.02 | 0.615 | 0.889 | 0.778 | 0.538 | 0.984 | 0.707 | 0.618 | 0.556 |
| NCI-H460 | 0.196 | 0.173 | 0.0878 | 0.0353 | 0.0199 | 1.21 | 0.977 | 0.0491 | 0.0709 | 0.0241 | 0.912 | 0.955 | – | 1.04 | 0.0917 | 0.721 | 0.909 | 0.216 | 0.48 | 0.0282 |
| NCI-H520 | 0.687 | 0.725 | 0.522 | 0.143 | 0.149 | 1.25 | 0.928 | 0.473 | 0.159 | 0.254 | 0.748 | 0.677 | 0.721 | 0.503 | 0.725 | 0.734 | 0.681 | 0.661 | 0.642 | 0.291 |
| NCI-H596 | 0.843 | 0.649 | 0.639 | 0.659 | 0.512 | 0.96 | 0.854 | 0.777 | 0.982 | 0.476 | 0.896 | 1.18 | 0.888 | 1.03 | 0.97 | 0.608 | 0.686 | 0.664 | 0.706 | 0.306 |
| NCI-H647 | 0.432 | 0.616 | 0.175 | 0.107 | 0.0901 | 1.47 | 1.57 | 0.521 | 0.198 | 0.068 | 1.21 | 1.25 | 1.26 | 1.05 | 1 | 0.646 | 0.536 | 0.441 | 0.548 | 0.251 |
| NCI-H727 | 0.38 | 0.323 | 0.365 | 0.351 | 0.394 | 0.407 | 0.319 | 0.423 | 0.165 | 0.205 | 0.96 | 1.14 | 0.949 | 0.722 | 0.837 | 1.4 | 1.2 | 1.28 | 1.03 | 1.05 |
| NCI-H838 | 0.518 | 0.466 | 0.236 | 0.204 | 0.166 | 1.16 | 1.21 | 0.468 | 0.314 | 0.251 | 1.11 | 1.1 | 1.16 | – | 0.931 | 0.669 | 0.789 | 0.76 | 0.548 | 0.617 |
